The values that follow come from patent US20250282749A1 (Tango Therapeutics, Inc., priority 2022, published 2025).

Type in all cases: cell-based
The subject of assay [1] is PRMT5 (SDMA) in HAP1 MTAP-intact cell line. The assay is described as follows: SDMA in-cell western assay, HAP1 MTAP-intact cell line. As to conditions: Homo sapiens, HAP1 MTAP-intact cell line (endogenous MTAP), read-out: Hap 1 MTAP intact IC50. The text has this: (§1) HAP1 MTAP-intact is a cell line in which endogenous levels of MTAP are expressed, and HAP1 MTAP-deleted is an MTAP-null cell line.

Assay [2] has as its system PRMT5 (SDMA) in HAP1 MTAP-deleted cell line. The assay is described as follows: SDMA in-cell western assay, HAP1 MTAP-deleted cell line. As to conditions: for IC50 / IC90: Homo sapiens, SDMA in-cell western, HAP1 MTAP-deleted (MTAP-null) cell line; for Hap1 MTAP intact/deleted ratio: ratio of SDMA in-cell western IC50 in HAP1 MTAP-intact to IC50 in HAP1 MTAP-deleted cell line.
Text: as §1

Assay [3] has as its system HAP1 MTAP-deleted cell line. The assay is described as follows: viability assay for the MTAP-deleted cell line. The following applies: Homo sapiens.

The IC50 is the midpoint of a concentration-inhibition curve. In general, IC90 refers to the concentration at which the effect reaches the 90% level. Read a high IC90 as a need for much substance. On to `C[C@@H]1CN(C(=O)C(=O)Nc2cncc3cn[nH]c23)[C@@H](c2ccccc2)CN1C(=O)OC(C)(C)C` [Compound 35, tert-butyl (2R,5S)-2-methyl-4-[2-oxo-2-(1H-pyrazolo[4,3-c]pyridin-7-ylamino)acetyl]-5-phenyl-piperazine-1-carboxylate], for which, in assay [1], the half-inhibitory concentration (IC50) was above 0.05 µM. In assay [2], the IC50 fell in the range of 0.005 to 0.05 µM, the IC90 was above 0.125 µM and the “Hap1 MTAP intact/deleted ratio” value is “A (an IC50 ratio greater than or equal to 30 fold)”. In assay [3], this compound showed an IC50 below 0.1 µM.

Consider `CC(C)C(=O)N1C[C@H](c2ccc(F)cc2)N(C(=O)C(=O)Nc2cnc(N)c(C3CC3)c2)C[C@H]1C` [Compound 86, N-(6-amino-5-cyclopropylpyridin-3-yl)-2-((2S,5R)-2-(4-fluorophenyl)-4-isobutyryl-5-methylpiperazin-1-yl)-2-oxoacetamide], for which the IC50 in assay [1] was above 0.05 µM. In addition, in assay [2], the 50% inhibitory concentration (IC50) is 0.005 to 0.05 µM, the IC90 was below 0.075 µM and the “Hap1 MTAP intact/deleted ratio” value is “C (an IC50 ratio of less than 15 fold)”. Moreover, the IC50 in assay [3] was below 0.1 µM.

On to `C[C@@H]1CN(C(=O)C(=O)Nc2cnc(N)c3c2cnn3C)[C@@H](c2ccccc2)CN1C` [Compound 164, N-(7-Amino-1-methyl-pyrazolo[3,4-c]pyridin-4-yl)-2-oxo-2-[(2S,5R)-4,5-dimethyl-2-phenyl-piperazin-1-yl]acetamide], for which, in assay [1], the IC50 was above 0.05 µM. In assay [2], the IC50 fell in the range of 0.005 to 0.05 µM, the IC90 was 0.075 to 0.125 µM and the “Hap1 MTAP intact/deleted ratio” value is “A (an IC50 ratio greater than or equal to 30 fold)”. In addition, in assay [3], the IC50 is below 0.1 µM.

Take `CCc1cc(NC(=O)C(=O)N2C[C@@H](C)N(C(=O)C3(C)CC3)C[C@@H]2c2ccc(N3CCN(C)CC3)cc2)cnc1N` [Compound 105, N-(6-amino-5-ethylpyridin-3-yl)-2-((2S,5R)-5-methyl-4-(1-methylcyclopropanecarbonyl)-2-(4-(4-methylpiperazin-1-yl)phenyl)piperazin-1-yl)-2-oxoacetamide]: in assay [1], the IC50 is above 0.05 µM. Besides, in assay [2], the IC50 was below 0.005 µM, the IC90 is below 0.075 µM and the “Hap1 MTAP intact/deleted ratio” value is recorded as “B (an IC50 ratio greater than or equal to 15 fold but lower than 30 fold)”. In assay [3], this compound had a half-inhibitory concentration (IC50) below 0.1 µM.

`CC(C)OC(=O)N1C[C@@H](c2ccc(F)cc2)N(C(=O)C(=O)Nc2cnc(N)c(C3CC3)c2)C[C@@H]1C` (stereo in doubt) [Compound 151, isopropyl 4-(2-((6-amino-5-cyclopropylpyridin-3-yl)amino)-2-oxoacetyl)-5-(4-fluorophenyl)-2-methylpiperazine-1-carboxylate]: the IC50 in assay [1] is above 0.05 µM; in assay [2] it was below 0.005 µM; in assay [3], below 0.1 µM. In assay [2], this compound displayed an IC90 below 0.075 µM. Further, in assay [2], the “Hap1 MTAP intact/deleted ratio” value is recorded as “B (an IC50 ratio greater than or equal to 15 fold but lower than 30 fold)”.

Turning to `Cc1cc(NC(=O)C(=O)N2C[C@@H](C)N(C(=O)C(C)C)C[C@@H]2c2ccc3scnc3c2)cnc1N` (single isomer, unassigned) [Compound 43], in assay [1], the IC50 is above 0.05 µM. Besides, in assay [2], the IC50 lay within 0.005 to 0.05 µM, the IC90 was above 0.125 µM and the “Hap1 MTAP intact/deleted ratio” value is “C (an IC50 ratio of less than 15 fold)”. In assay [3], this compound displayed a half-inhibitory concentration (IC50) of 0.1 to 1 µM.

Take `COc1ncc(NC(=O)C(=O)N2C[C@@H](C)N(C(=O)C(C)C)C[C@@H]2c2cccc(N3CCN(C)CC3)c2)cc1C(N)=O` [Compound 10, 5-(2-((2S,5R)-4-isobutyryl-5-methyl-2-(3-(4-methylpiperazin-1-yl)phenyl)piperazin-1-yl)-2-oxoacetamido)-2-methoxynicotinamide]: the figures for the IC50 in assay [1], in assay [2] and in assay [3] were above 0.05 µM, 0.005 to 0.05 µM and 0.1 to 1 µM, respectively. Also, in assay [2], the IC90 is above 0.125 µM. For the same compound, the “Hap1 MTAP intact/deleted ratio” value in assay [2] is listed as “C (an IC50 ratio of less than 15 fold)”.
